Legend:
[1] = target: autophagocytosis (luciferase uptake into isolated yeast vacuoles); assay: In vitro autophagocytosis assay (luciferase uptake into isolated vacuoles); format: biochemical, Saccharomyces cerevisiae; conditions: standard uptake reaction, cell-free, sample without inhibitor as 100% reference, FIG. 7; read-out: IC50 for prevention of vesicle formation (luciferase uptake)
Protocol: This mixture was incubated for 1 h at 27° C. A 70 μl sample was chilled on ice, diluted with 300 μl 150 mM KCl in PS buffer, centrifuged (6800×g, 4 min, 2° C., fixed angle table top centrifuge), washed twice with 300 μl 150 mM KCl in PS buffer, and resuspended in 60 μl 150 mM KCl in PS buffer. 10 μl were used to check for complete vacuole recovery by determining the protein concentration or, alternatively, the activity of endogenous Pho8p (according to Haas et al., 1994). 40 μl of the suspension were treated with proteinase K (15 min, 0° C., 275 μg/ml, added from a 5 mg/ml stock in PS) to digest surface-bound luciferase. Digestion was terminated by adding an equal volume of freshly prepared PMSF solution (0.5 mM PMSF, 150 mM KCl, in PS buffer). Luciferase activity was determined from a 25 μl aliquot in a luminometer using a luciferase kit (Berthold Detection Systems, Pforzheim) according to the instructions of the supplier.

firefly luciferase = firefly luciferase (Photinus pyralis, UniProt P08659); assay: Direct influence on luciferase activity (control); format: biochemical; conditions: not shown
[2] = test system: autophagocytosis in yeast; conditions: nocodazole treatment disassembling microtubules (Kirisako et al. 1999); cited from earlier work

Chain of firefly luciferase (P08659 whole entry): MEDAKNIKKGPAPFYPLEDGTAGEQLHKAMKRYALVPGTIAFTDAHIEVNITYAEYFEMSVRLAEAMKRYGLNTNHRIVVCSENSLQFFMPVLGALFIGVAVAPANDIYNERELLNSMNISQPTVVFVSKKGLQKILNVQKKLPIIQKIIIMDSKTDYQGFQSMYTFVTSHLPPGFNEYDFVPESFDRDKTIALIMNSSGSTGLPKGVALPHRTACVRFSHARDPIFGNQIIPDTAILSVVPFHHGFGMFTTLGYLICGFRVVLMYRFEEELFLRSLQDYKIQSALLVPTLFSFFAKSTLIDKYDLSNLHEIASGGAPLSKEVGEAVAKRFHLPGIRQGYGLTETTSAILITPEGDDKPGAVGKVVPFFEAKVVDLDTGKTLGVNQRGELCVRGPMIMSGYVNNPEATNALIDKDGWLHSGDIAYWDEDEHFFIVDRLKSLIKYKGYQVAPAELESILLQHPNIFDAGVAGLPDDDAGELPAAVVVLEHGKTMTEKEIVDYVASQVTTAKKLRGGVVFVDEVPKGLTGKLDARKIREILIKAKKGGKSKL

SMILES	IC50 [1] [µM]	influence on luciferase activity by itself (firefly luciferase)	block of autophagocytosis in yeast [2]
Nc1nc2c(ncn2[C@@H]2O[C@H](COP(=O)(O)OP(=O)(O)OP(O)(O)=S)[C@@H](O)[C@H]2O)c(=O)[nH]1 [GTPγS]	100	did not influence luciferase activity by itself	–
COC(=O)Nc1nc2ccc(C(=O)c3cccs3)cc2[nH]1 [nocodazole]	–	–	does not block autophagocytosis

From patent US20040171061A1 (priority 2000, published 2004)
